Assay results as given in US11479556B1, “Bifunctional compounds for degrading BTK via ubiquitin proteosome pathway” (NURIX THERAPEUTICS, INC., priority 2018, dated 2022).

Assays:
BTK [1] = biological target: T1, BTK (Homo sapiens, UniProt Q06187); assay: Cellular BTK HTRF assay (BTK degradation) in TMD8 cells; assay type: cell-based; conditions: four hours incubation, Total-BTK HTRF relative to DMSO-treated cells
T1 construct: endogenous in cells; host or cells: TMD8 cells
In short: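 TMD8 cells were treated with compounds (final DMSO <0.200) for four hours at 37° C, 5% CO2, then lysed for 30 minutes. Total BTK was measured by two-antibody HTRF, taking the 665/620 nm ratio with background subtracted and expressed relative to DMSO-treated cells. DC50 came from four-parameter nonlinear regression.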

BTK [2] = biological target: T2, BTK (Mus musculus, UniProt P35991); assay: Mouse BTK degradation assay with oral dosing; assay type: in vivo; conditions: CD-1 or BALB/c mice, oral gavage (PO); Yes = significant BTK degradation upon oral dosage
T2 construct: from tissue; host or cells: whole blood or spleen of CD-1 or BALB/c mice
Description: Example 68: Mouse BTK Degradation Assay with Oral Dosing
A method of determining the pharmacodynamic profile of compounds of the present invention (experimental compound) was performed by dosing either CD-1 or BALB/c mice with the compound. The experimental compound was prepared in a suitable formulation and was administered via oral gavage (PO) at a suitable dose level and frequency as informed by prior pharmacokinetic and tolerability studies. Following administration of the experimental compound, BTK levels in blood or splenocytes are measured using flow cytometry or HTRF. For assessment of BTK levels via flow cytometry, either whole blood or spleen were first treated with ACK RBC lysis buffer to facilitate lysing of red blood cells. Remaining cells were then stained with fluorophore-conjugated antibodies against CD45, TCR beta and CD45R (B220). Cell pellets were washed with 1×PBS and fixed and permeabilized for 24 hrs with Foxp3/Transcription Factor Fixation/Permeabilization Kit. Cells were then stained intracellularly with unconjugated BTK antibody and detected with a fluorophore-conjugated secondary antibody. Stained cells were run on an Attune NxT Acoustic Focusing Flow Cytometer (Thermo-Fisher A29004), and data was analyzed using FlowJo (v10.5.3) and GraphPad Prism (v7.00) software. Lymphocytes were gated for B cells defined as CD45+ TCR beta− B220+ and T cells as CD45+ TCR beta+ B220−. The BTK geometric mean fluorescence intensity (MFI) was calculated for B and T cells. Percent BTK degradation for each experimental compound treated sample was calculated using the equation described below: […]

Aiolos = biological target: T3, Aiolos (Homo sapiens, UniProt Q96SW2+Q9UKT9); assay: Aiolos degradation flow cytometry assay in human PBMCs (T cells); assay type: cell-based; conditions: 24 hours, T cells (CD3+CD20-), read-out: Aiolos T Cell DC50
T3 construct: Frozen human peripheral blood mononuclear cells (PBMCs) were thawed and treated with DMSO or compound for 24 hours; endogenous in cells; host or cells: human PBMCs (T cells gated CD3+CD20-)
Description: Example 67: Aiolos Degradation Assay
Frozen human peripheral blood mononuclear cells (PBMCs) were thawed and treated with DMSO or compound for 24 hours and then fixed and permeabilized using a Foxp3/Transcription Factor Fixation/Permeabilization Kit (eBioscience, 00-5523). Cells were stained with fluorophore-conjugated antibodies against CD20 (Biolegend 302330), CD3 (BD Pharmingen 552127), and Aiolos (Biolegend 371106). An additional set of DMSO-treated PBMCs was stained for CD20, CD3, and an AlexaFluor 647-conjugated mouse IgG1 isotype control antibody (Biolegend 400136). Stained cells were analyzed using an Attune NxT Acoustic Focusing Flow Cytometer (Thermo-Fisher A29004), and data was analyzed using FlowJo (v10.5.3) and GraphPad Prism (v7.00) software. Single lymphocytes were gated for B cells (CD20+CD3−) and T cells (CD3+CD20−), and the geometric mean fluorescence intensity (MFI) of Aiolos was calculated for each population. The MFI of the isotype control was calculated for each population and used to quantify background staining. Percent Aiolos degradation was calculated for each compound-treated sample using the following equation: […]
Four-parameter non-linear regressions were performed in GraphPad Prism 7.02 to obtain DC50 values. Aiolos T Cell DC50 values are provided in Table 4, wherein A<10.0 nM, 10.0 nM≤B≤1000 nM, and 1000 nM<C.

T2 sequence (P35991 whole entry): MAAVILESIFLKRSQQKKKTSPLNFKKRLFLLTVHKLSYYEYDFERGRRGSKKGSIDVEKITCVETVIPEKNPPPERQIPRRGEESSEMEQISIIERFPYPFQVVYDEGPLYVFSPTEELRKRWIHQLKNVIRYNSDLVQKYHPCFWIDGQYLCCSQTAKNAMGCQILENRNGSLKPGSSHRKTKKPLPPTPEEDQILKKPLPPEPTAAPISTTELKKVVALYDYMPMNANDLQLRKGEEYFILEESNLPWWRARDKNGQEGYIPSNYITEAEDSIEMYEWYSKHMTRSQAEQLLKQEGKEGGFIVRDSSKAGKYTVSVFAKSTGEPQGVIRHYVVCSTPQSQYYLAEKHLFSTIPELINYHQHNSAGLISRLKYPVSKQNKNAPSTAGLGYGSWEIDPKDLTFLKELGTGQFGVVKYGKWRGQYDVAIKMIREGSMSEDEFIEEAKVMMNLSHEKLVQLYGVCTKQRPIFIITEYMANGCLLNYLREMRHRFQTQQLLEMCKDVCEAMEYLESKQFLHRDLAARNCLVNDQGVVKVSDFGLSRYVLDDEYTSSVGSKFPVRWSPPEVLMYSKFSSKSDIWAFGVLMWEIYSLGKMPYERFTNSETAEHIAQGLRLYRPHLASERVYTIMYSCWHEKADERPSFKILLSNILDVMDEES
T1 sequence (Q06187 whole entry): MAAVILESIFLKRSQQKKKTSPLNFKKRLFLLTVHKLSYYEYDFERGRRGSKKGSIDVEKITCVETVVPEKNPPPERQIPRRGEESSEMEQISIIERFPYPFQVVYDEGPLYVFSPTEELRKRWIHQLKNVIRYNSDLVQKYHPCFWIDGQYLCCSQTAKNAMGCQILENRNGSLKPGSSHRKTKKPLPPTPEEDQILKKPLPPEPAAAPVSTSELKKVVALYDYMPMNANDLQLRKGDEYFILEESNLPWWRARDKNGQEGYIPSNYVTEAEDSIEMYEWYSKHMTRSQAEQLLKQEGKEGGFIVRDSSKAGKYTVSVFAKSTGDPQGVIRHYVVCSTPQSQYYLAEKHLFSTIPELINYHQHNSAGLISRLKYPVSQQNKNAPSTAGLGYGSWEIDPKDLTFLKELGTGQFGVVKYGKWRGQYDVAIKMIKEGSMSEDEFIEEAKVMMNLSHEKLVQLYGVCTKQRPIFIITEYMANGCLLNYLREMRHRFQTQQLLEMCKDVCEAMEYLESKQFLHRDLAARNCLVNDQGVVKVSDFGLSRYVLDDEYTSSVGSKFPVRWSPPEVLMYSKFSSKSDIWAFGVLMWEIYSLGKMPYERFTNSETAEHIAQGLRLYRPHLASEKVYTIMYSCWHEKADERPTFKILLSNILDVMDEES
T3 sequence (Q9UKT9 whole entry): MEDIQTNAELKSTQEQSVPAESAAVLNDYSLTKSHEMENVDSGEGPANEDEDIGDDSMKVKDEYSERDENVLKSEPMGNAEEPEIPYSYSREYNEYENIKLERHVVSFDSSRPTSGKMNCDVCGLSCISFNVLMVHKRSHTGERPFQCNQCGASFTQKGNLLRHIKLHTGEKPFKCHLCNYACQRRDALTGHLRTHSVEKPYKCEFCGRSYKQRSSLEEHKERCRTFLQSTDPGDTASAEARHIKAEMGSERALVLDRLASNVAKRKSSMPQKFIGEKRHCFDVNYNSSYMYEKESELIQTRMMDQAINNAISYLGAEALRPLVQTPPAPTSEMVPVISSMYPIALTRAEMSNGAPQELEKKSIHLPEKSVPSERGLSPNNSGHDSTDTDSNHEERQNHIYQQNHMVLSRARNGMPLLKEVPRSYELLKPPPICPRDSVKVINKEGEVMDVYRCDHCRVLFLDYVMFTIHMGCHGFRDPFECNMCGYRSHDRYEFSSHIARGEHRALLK
T3 sequence (Q96SW2 whole entry): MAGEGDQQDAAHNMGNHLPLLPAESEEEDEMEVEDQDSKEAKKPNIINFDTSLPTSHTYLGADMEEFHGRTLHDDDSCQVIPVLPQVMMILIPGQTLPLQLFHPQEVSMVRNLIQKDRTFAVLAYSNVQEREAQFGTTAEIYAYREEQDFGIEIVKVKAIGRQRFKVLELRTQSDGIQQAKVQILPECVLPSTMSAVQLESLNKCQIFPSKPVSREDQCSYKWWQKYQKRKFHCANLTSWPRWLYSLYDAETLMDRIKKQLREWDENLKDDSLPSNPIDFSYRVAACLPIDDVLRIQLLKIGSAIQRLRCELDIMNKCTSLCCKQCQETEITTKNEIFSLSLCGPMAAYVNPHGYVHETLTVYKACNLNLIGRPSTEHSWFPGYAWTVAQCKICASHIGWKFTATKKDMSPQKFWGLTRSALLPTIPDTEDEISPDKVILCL
T3 sequence (Q16531 whole entry partner): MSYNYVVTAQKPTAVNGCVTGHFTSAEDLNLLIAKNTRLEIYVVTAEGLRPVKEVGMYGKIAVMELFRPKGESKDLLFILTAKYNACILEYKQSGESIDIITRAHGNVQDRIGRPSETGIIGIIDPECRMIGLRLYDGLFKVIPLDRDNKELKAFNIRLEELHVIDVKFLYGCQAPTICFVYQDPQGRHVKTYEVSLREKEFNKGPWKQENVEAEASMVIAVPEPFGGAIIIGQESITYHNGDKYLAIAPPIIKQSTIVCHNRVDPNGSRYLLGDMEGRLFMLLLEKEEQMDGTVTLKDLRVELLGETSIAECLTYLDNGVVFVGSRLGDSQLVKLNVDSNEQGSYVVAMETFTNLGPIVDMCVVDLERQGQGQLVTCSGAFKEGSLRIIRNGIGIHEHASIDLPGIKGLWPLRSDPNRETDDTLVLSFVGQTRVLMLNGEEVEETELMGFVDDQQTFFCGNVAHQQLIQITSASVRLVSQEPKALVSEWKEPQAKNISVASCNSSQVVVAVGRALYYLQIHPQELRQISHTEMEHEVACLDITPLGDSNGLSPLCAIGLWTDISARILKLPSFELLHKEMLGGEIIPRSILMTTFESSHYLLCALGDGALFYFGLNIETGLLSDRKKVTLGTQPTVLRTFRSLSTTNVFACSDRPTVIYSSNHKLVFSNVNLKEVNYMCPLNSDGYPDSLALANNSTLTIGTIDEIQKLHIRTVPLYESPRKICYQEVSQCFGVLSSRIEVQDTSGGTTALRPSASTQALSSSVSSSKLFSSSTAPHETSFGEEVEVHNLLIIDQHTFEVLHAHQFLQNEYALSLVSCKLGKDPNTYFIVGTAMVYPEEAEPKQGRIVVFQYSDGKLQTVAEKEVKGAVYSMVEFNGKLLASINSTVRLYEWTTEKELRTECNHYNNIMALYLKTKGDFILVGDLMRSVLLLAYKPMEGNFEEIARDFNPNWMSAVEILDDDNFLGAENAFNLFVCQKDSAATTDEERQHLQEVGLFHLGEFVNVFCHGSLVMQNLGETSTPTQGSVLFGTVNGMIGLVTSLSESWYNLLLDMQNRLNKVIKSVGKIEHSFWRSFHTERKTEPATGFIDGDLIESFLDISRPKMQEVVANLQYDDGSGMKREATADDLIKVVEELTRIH

Compound	DC50 (BTK [1]) [nM]	BTK degradation after oral dosing (BTK [2])	DC50 (Aiolos) [nM]
CN1CCN([C@@H]2CCCN(c3cnc(C(N)=O)c(Nc4ccc(C5CCN(C[C@H]6CCN(c7ccc8c(c7)C(=O)N(C7CCC(=O)NC7=O)C8=O)C6)CC5)cc4)n3)C2)C1=O (some centres unmarked) [Compound 44]	< 5	Yes	–
CN1CCN([C@@H]2CCCN(c3cnc(C(N)=O)c(Nc4ccc(N5CCN(C(=O)CCOCCCc6ccc7c(c6)C(=O)N(C6CCC(=O)NC6=O)C7)CC5)cc4)n3)C2)C1=O (some centres unmarked) [Compound 61]	< 5	–	> 1000
CN1CCN([C@@H]2CCCN(c3cnc(C(N)=O)c(Nc4ccc(OCCCNc5ccc6c(c5)C(=O)N(C5CCC(=O)NC5=O)C6=O)cc4)n3)C2)C1=O (some centres unmarked) [Compound 64]	> 15	–	10 to 1000
NC(=O)c1ncc(N2CCC[C@H](N3CCOC3=O)C2)nc1Nc1ccc(N2CCC(C3CN(c4ccc5c(c4)C(=O)N(C4CCC(=O)NC4=O)C5=O)C3)CC2)cc1 (some centres unmarked) [Compound 70]	< 5	Yes	–
CN1CCN([C@@H]2CCCN(c3cnc(C(N)=O)c(Nc4ccc(C5(C)CCN(C[C@H]6CCN(c7ccc8c(c7)C(=O)N(C7CCC(=O)NC7=O)C8=O)C6)CC5)cc4)n3)C2)C1=O (some centres unmarked) [Compound 71]	< 5	Yes	–
CN1CCN([C@@H]2CCCN(c3cnc(C(N)=O)c(Nc4ccc(C5CCN(CC6CCN(c7ccc8c(=O)n(C9CCC(=O)NC9=O)ccc8c7)CC6)CC5)cc4)n3)C2)C1=O (some centres unmarked) [Compound 72]	< 5	Yes	–
NC(=O)c1ncc(N2CCC[C@@H](N3CCOC3=O)C2)nc1Nc1ccc(C2CCN(C[C@H]3CCN(c4ccc5c(c4)C(=O)N(C4CCC(=O)NC4=O)C5=O)C3)CC2)cc1 (some centres unmarked) [Compound 73]	< 5	Yes	–
CN1CCN([C@H]2CCCN(c3cnc(C(N)=O)c(Nc4ccc(C5(C)CCN(C6CN(c7ccc8c(c7)C(=O)N(C7CCC(=O)NC7=O)C8=O)C6)CC5)cc4)n3)C2)C1=O (some centres unmarked) [Compound 74]	< 5	Yes	–
CN1CCN([C@@H]2CCCN(c3cnc(C(N)=O)c(Nc4ccc(C5(C)CCN(C6CN(Cc7ccc8c(c7)C(=O)N(C7CCC(=O)NC7=O)C8=O)C6)CC5)cc4)n3)C2)C1=O (some centres unmarked) [Compound 75]	< 5	–	> 1000
CN1CCN([C@H]2CCCN(c3cnc(C(N)=O)c(Nc4cnn(C5CCN(CC6CN(c7ccc8c(c7)C(=O)N(C7CCC(=O)NC7=O)C8=O)C6)CC5)c4)n3)C2)C1=O (some centres unmarked) [Compound 78]	< 5	–	10 to 1000
CN1CCN([C@H]2CCCN(c3cnc(C(N)=O)c(Nc4ccc5c(c4)CCN(CC4CN(c6ccc7c(c6)C(=O)N(C6CCC(=O)NC6=O)C7=O)C4)C5)n3)C2)C1=O (some centres unmarked) [Compound 92]	5 to 15	–	< 10
CN1CCN([C@H]2CCCN(c3cnc(C(N)=O)c(Nc4ccc(N5CCN(CC#Cc6cccc7c6CN(C6CCC(=O)NC6=O)C7=O)CC5)cc4)n3)C2)C1=O (some centres unmarked) [Compound 99]	< 5	–	> 1000

Continued, values first:

DC50 (BTK [1]) [nM]	BTK degradation after oral dosing (BTK [2])	DC50 (Aiolos) [nM]	Compound
5 to 15	–	> 1000	NC(=O)c1ncc(N2CCCCC2)nc1Nc1ccc(N2CCC3(CCN(Cc4ccc5c(c4)C(=O)N(C4CCC(=O)NC4=O)C5=O)CC3)CC2)cc1 (centres unmarked) [Compound 123]
< 5	Yes	–	Cn1cc(Nc2nc(N3CCC[C@H](N4CC5(CN(CC6CCN(c7ccc(C(=O)NC8CCC(=O)NC8=O)nc7)CC6)C5)OC4=O)C3)cnc2C(N)=O)cn1 (some centres unmarked) [Compound 131]
5 to 15	Yes	–	NC(=O)c1ncc(-c2nccs2)nc1Nc1ccc(N2CCC3(CCN(Cc4ccc5c(c4)C(=O)N(C4CCC(=O)NC4=O)C5=O)CC3)CC2)cc1 (centres unmarked) [Compound 150]
< 5	–	10 to 1000	CN1CCN([C@@H]2CCCN(c3cnc(C(N)=O)c(Nc4ccc(C5CCN(CCCNc6cccc7c6C(=O)N(C6CCC(=O)NC6=O)C7=O)CC5)cc4)n3)C2)C1=O (some centres unmarked) [Compound 155]
< 5	–	< 10	CN1CCN([C@@H]2CCCN(c3cnc(C(N)=O)c(Nc4ccc(C5CCN(CC6CCN(c7ccc8c(c7)n(C)c(=O)n8C7CCC(=O)NC7=O)CC6)CC5)cc4)n3)C2)C1=O (some centres unmarked) [Compound 156]
5 to 15	–	> 1000	CN1CCN(c2cnc(C(N)=O)c(Nc3ccc(C4CCN(C[C@H]5CCN(c6ccc7c(c6)C(=O)N(C6CCC(=O)NC6=O)C7=O)C5)CC4)cc3)n2)CC1 (some centres unmarked) [Compound 157]
< 5	–	> 1000	CN1CCN([C@@H]2CCCN(c3cnc(C(N)=O)c(Nc4ccc(C5CCN(CC6CCN(c7ccc(OC8CCC(=O)NC8=O)cn7)CC6)CC5)cc4)n3)C2)C1=O (some centres unmarked) [Compound 166]
